# Reference: patent US9359338B2, “Cyclopropanecarboxamido-substitute aromatic compounds as anti-tumor agents” (Crown Bioscience Inc. (Taiwan), priority 2012, dated 2016)
# Target: B-Raf kinase (Homo sapiens (Human), UniProt P15056)
# Assay: Inhibitory activity at B-Raf kinase (ADP-GLO assay)
# Format: biochemical
# Details: not given
# Procedure: Inhibitory Activity of Compounds at B-Raf Kinase
# • [Experimental method]: Use ADP-GLO™ assay kit from Promega to evaluate the inhibitory activity of compounds at B-Raf • [Instrument]: PerKinElmer's ENVISION plate reader • [Material]: Optiplate-384 well plate (PerKinElmer), kinase buffer (50 mM Hepes pH7.5, 1 mM EGTA, 2 mM DTT, 10 mM Mg^2+, 0.05% BSA), B-Raf kinase (Millipore, catalogue #14-530-K), GST-MEK1 substrate (Carna, catalogue #07-141-10), Super pure ATP (Promega), ADP-GLO™ assay kit (Promega, catalogue # V9102), DMSO (Sigma, catalogue #34869), purified water (Millipore, type: Milli-Q). • [Study conditions]: Mix B-Raf kinase (final concentration: 5 nM) and compound (DMSO final concentration: 0.25%) and preincubate at 30° C. for 20 min, then add ATP (final concentration: 6 μM) and reaction substrate (final concentration: 30 nM), React for 2 hrs at 30° C. After reaction, add ADP-GLO™ reagent, react for 40 min at room temperature, then add ADP-GLO™ detecting agent, react for 30 min at room temperature. After that, use ENVSION to measure the […]. • [Samples]: Compounds in the examples and Sorafenib (positive control) • [Data analysis]: Use CBIS data analysis software to calculate IC50 values
# Chain of B-Raf kinase (P15056 416-766): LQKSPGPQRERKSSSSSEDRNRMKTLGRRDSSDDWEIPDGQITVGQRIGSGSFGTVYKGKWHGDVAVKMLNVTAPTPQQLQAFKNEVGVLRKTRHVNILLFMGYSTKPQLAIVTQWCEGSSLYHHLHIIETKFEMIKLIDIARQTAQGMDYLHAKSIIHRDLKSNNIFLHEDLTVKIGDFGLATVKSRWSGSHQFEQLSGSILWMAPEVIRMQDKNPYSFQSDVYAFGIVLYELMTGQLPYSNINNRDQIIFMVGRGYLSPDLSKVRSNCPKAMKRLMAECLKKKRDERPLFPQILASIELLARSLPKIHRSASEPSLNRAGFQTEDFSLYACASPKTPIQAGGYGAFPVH
row,Structure (SMILES),IC50 [µM]
1,CC1CN(c2cc(NC(=O)Nc3ccc(Oc4ccnc(NC(=O)C5CC5)c4)c(F)c3)cc(C(F)(F)F)c2)CCO1 (centres unmarked) [Exe. 162],0.0225
2,CN1CCC(Oc2cc(NC(=O)Nc3ccc(Oc4ccnc(NC(=O)C5CC5)c4)c(F)c3)cc(C(F)(F)F)c2)CC1 [Exe. 164],0.0715
3,CN1CCN(Cc2cc(NC(=O)Nc3ccc(Oc4ccnc(NC(=O)C5CC5)c4)c(F)c3)cc(C(F)(F)F)c2)CC1 [Exe. 167],0.0238
4,CN1CCC(Nc2ccc(NC(=O)Nc3ccc(Oc4ccnc(NC(=O)C5CC5)c4)c(F)c3)cc2C(F)(F)F)CC1 [Exe. 168],0.0079
5,O=C(Nc1ccc(Oc2ccnc(NC(=O)C3CC3)c2)c(F)c1)Nc1cc(C(F)(F)F)ncn1 [Exe. 170],0.096
6,O=C(Nc1cccc(OC(F)(F)F)c1)Nc1ccc(Oc2ccnc(NC(=O)C3CC3)c2)c(F)c1 [Exe. 175],0.0098
7,O=C(Nc1ccc(OC(F)(F)F)cc1)Nc1ccc(Oc2ccnc(NC(=O)C3CC3)c2)c(F)c1 [Exe. 178],0.0347
8,CC(F)(F)c1ccc(F)c(NC(=O)Nc2ccc(Oc3ccnc(NC(=O)C4CC4)c3)c(F)c2)c1 [Exe. 181],0.0048
9,CC(F)(F)c1cc(NC(=O)Nc2ccc(Oc3ccnc(NC(=O)C4CC4)c3)c(F)c2)ccc1Cl [Exe. 182],0.032
10,CC(F)(F)c1cc(NC(=O)Nc2ccc(Oc3ccnc(NC(=O)C4CC4)c3)c(F)c2)ccc1F [Exe. 183],0.056
11,O=C(Nc1ccc(Oc2ccnc(NC(=O)C3CC3)c2)c(F)c1)Nc1cc(Cl)ccc1F [Exe. 184],0.0734

# The next lines start with the values.
row,IC50 [µM],Structure (SMILES)
1,0.043,O=C(Nc1ccc(Oc2ccnc(NC(=O)C3CC3)c2)c(F)c1)Nc1cc(C(F)(F)F)ccc1Cl [Exe. 157]
2,0.0354,O=C(Nc1cc(-c2ccncc2)cc(C(F)(F)F)c1)Nc1ccc(Oc2ccnc(NC(=O)C3CC3)c2)c(F)c1 [Exe. 159]
3,0.0079,CN1CCC(Nc2cc(NC(=O)Nc3ccc(Oc4ccnc(NC(=O)C5CC5)c4)c(F)c3)cc(C(F)(F)F)c2)CC1 [Exe. 161]
4,0.024,C=CC(=O)Nc1cc(NC(=O)Nc2ccc(Oc3ccnc(NC(=O)C4CC4)c3)c(F)c2)cc(C(F)(F)F)c1 [Exe. 163]
5,0.0066,CS(=O)(=O)Nc1cc(NC(=O)Nc2ccc(Oc3ccnc(NC(=O)C4CC4)c3)c(F)c2)cc(C(F)(F)F)c1 [Exe. 165]
6,0.027,O=C(Nc1cc(N2CCS(=O)(=O)CC2)cc(C(F)(F)F)c1)Nc1ccc(Oc2ccnc(NC(=O)C3CC3)c2)c(F)c1 [Exe. 166]

# System: PLC-PRF-5 cells
# Assay: Inhibition of proliferation of PLC-PRF-5 cells (ATPlite)
# Format: cell-based
# Details: Homo sapiens, PLC-PRF-5, PLC-PRF-5 cells; read-out: PLC-PRF-5 cell proliferation IC50
# Outline: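 Antiproliferative IC50 from luminescent ATP detection (ATPlite) after 96 h compound exposure at 37 °C. Cells grown in DMEM plus 10% FBS and allowed 2 h to settle, then dosed with eight 3-fold dilutions topping at 30 μM final, DMSO 0.3%.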
row,Structure (SMILES),IC50 [µM]
1,O=C(Nc1ccc(Oc2ccnc(NC(=O)C3CC3)c2)c(F)c1)Nc1cc(C(F)(F)F)ccc1Cl [Exe. 157],0.156
2,O=C(Nc1cc(-c2ccncc2)cc(C(F)(F)F)c1)Nc1ccc(Oc2ccnc(NC(=O)C3CC3)c2)c(F)c1 [Exe. 159],0.642
3,CN1CCC(Nc2cc(NC(=O)Nc3ccc(Oc4ccnc(NC(=O)C5CC5)c4)c(F)c3)cc(C(F)(F)F)c2)CC1 [Exe. 161],1.34
4,CC1CN(c2cc(NC(=O)Nc3ccc(Oc4ccnc(NC(=O)C5CC5)c4)c(F)c3)cc(C(F)(F)F)c2)CCO1 (centres unmarked) [Exe. 162],0.33
5,C=CC(=O)Nc1cc(NC(=O)Nc2ccc(Oc3ccnc(NC(=O)C4CC4)c3)c(F)c2)cc(C(F)(F)F)c1 [Exe. 163],0.998
6,CN1CCC(Oc2cc(NC(=O)Nc3ccc(Oc4ccnc(NC(=O)C5CC5)c4)c(F)c3)cc(C(F)(F)F)c2)CC1 [Exe. 164],2.95
7,CS(=O)(=O)Nc1cc(NC(=O)Nc2ccc(Oc3ccnc(NC(=O)C4CC4)c3)c(F)c2)cc(C(F)(F)F)c1 [Exe. 165],1.07
8,O=C(Nc1cc(N2CCS(=O)(=O)CC2)cc(C(F)(F)F)c1)Nc1ccc(Oc2ccnc(NC(=O)C3CC3)c2)c(F)c1 [Exe. 166],1.64
9,CN1CCN(Cc2cc(NC(=O)Nc3ccc(Oc4ccnc(NC(=O)C5CC5)c4)c(F)c3)cc(C(F)(F)F)c2)CC1 [Exe. 167],1.23
10,CN1CCC(Nc2ccc(NC(=O)Nc3ccc(Oc4ccnc(NC(=O)C5CC5)c4)c(F)c3)cc2C(F)(F)F)CC1 [Exe. 168],0.031
11,O=C(Nc1ccc(Oc2ccnc(NC(=O)C3CC3)c2)c(F)c1)Nc1cc(C(F)(F)F)ncn1 [Exe. 170],0.23
12,O=C(Nc1cccc(OC(F)(F)F)c1)Nc1ccc(Oc2ccnc(NC(=O)C3CC3)c2)c(F)c1 [Exe. 175],0.27
13,O=C(Nc1ccc(OC(F)(F)F)cc1)Nc1ccc(Oc2ccnc(NC(=O)C3CC3)c2)c(F)c1 [Exe. 178],4.88
14,CC(F)(F)c1ccc(F)c(NC(=O)Nc2ccc(Oc3ccnc(NC(=O)C4CC4)c3)c(F)c2)c1 [Exe. 181],0.023
15,CC(F)(F)c1cc(NC(=O)Nc2ccc(Oc3ccnc(NC(=O)C4CC4)c3)c(F)c2)ccc1Cl [Exe. 182],0.752
16,CC(F)(F)c1cc(NC(=O)Nc2ccc(Oc3ccnc(NC(=O)C4CC4)c3)c(F)c2)ccc1F [Exe. 183],0.23
17,O=C(Nc1ccc(Oc2ccnc(NC(=O)C3CC3)c2)c(F)c1)Nc1cc(Cl)ccc1F [Exe. 184],0.61

# System: pERK in MDA-MB-231 cells
# Assay: Inhibitory activity at pERK (In Cell Western, MDA-MB-231 cells)
# Format: cell-based
# Details: Homo sapiens, MDA-MB-231, MDA-MB-231 cells; read-out: MDA-MB-231 pERK IC50
# Outline: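 pERK was measured by in-cell immunofluorescence (PI nuclear counterstain, Acumen read-out) in fixed MDA-MB-231 cells. Compound exposure lasted 2 h in DMEM with 0.1% BSA, using eight 3-fold dilutions starting at 30 μM final and 0.3% DMSO. IC50 values were derived from the resulting curves.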
row,Structure (SMILES),IC50 [µM]
1,CC1CN(c2cc(NC(=O)Nc3ccc(Oc4ccnc(NC(=O)C5CC5)c4)c(F)c3)cc(C(F)(F)F)c2)CCO1 (centres unmarked) [Exe. 162],0.0306
2,CN1CCC(Oc2cc(NC(=O)Nc3ccc(Oc4ccnc(NC(=O)C5CC5)c4)c(F)c3)cc(C(F)(F)F)c2)CC1 [Exe. 164],0.198
3,CN1CCN(Cc2cc(NC(=O)Nc3ccc(Oc4ccnc(NC(=O)C5CC5)c4)c(F)c3)cc(C(F)(F)F)c2)CC1 [Exe. 167],0.262
4,CN1CCC(Nc2ccc(NC(=O)Nc3ccc(Oc4ccnc(NC(=O)C5CC5)c4)c(F)c3)cc2C(F)(F)F)CC1 [Exe. 168],0.0116
5,O=C(Nc1ccc(Oc2ccnc(NC(=O)C3CC3)c2)c(F)c1)Nc1cc(C(F)(F)F)ncn1 [Exe. 170],0.0316
6,O=C(Nc1cccc(OC(F)(F)F)c1)Nc1ccc(Oc2ccnc(NC(=O)C3CC3)c2)c(F)c1 [Exe. 175],0.0305
7,O=C(Nc1ccc(OC(F)(F)F)cc1)Nc1ccc(Oc2ccnc(NC(=O)C3CC3)c2)c(F)c1 [Exe. 178],0.159
8,CC(F)(F)c1ccc(F)c(NC(=O)Nc2ccc(Oc3ccnc(NC(=O)C4CC4)c3)c(F)c2)c1 [Exe. 181],0.0257
9,CC(F)(F)c1cc(NC(=O)Nc2ccc(Oc3ccnc(NC(=O)C4CC4)c3)c(F)c2)ccc1Cl [Exe. 182],0.017
10,CC(F)(F)c1cc(NC(=O)Nc2ccc(Oc3ccnc(NC(=O)C4CC4)c3)c(F)c2)ccc1F [Exe. 183],0.0157
11,O=C(Nc1ccc(Oc2ccnc(NC(=O)C3CC3)c2)c(F)c1)Nc1cc(Cl)ccc1F [Exe. 184],0.31

# Continued, values first:
row,IC50 [µM],Structure (SMILES)
1,0.0347,O=C(Nc1ccc(Oc2ccnc(NC(=O)C3CC3)c2)c(F)c1)Nc1cc(C(F)(F)F)ccc1Cl [Exe. 157]
2,0.0443,O=C(Nc1cc(-c2ccncc2)cc(C(F)(F)F)c1)Nc1ccc(Oc2ccnc(NC(=O)C3CC3)c2)c(F)c1 [Exe. 159]
3,0.0869,CN1CCC(Nc2cc(NC(=O)Nc3ccc(Oc4ccnc(NC(=O)C5CC5)c4)c(F)c3)cc(C(F)(F)F)c2)CC1 [Exe. 161]
4,0.0329,C=CC(=O)Nc1cc(NC(=O)Nc2ccc(Oc3ccnc(NC(=O)C4CC4)c3)c(F)c2)cc(C(F)(F)F)c1 [Exe. 163]
5,0.041,CS(=O)(=O)Nc1cc(NC(=O)Nc2ccc(Oc3ccnc(NC(=O)C4CC4)c3)c(F)c2)cc(C(F)(F)F)c1 [Exe. 165]
6,0.0455,O=C(Nc1cc(N2CCS(=O)(=O)CC2)cc(C(F)(F)F)c1)Nc1ccc(Oc2ccnc(NC(=O)C3CC3)c2)c(F)c1 [Exe. 166]

# Target: KDR kinase (790-1356 AA) (Homo sapiens (Human), UniProt P35968)
# Assay: Inhibitory activity at KDR kinase (Lance Ultra Ulight-TK assay)
# Format: biochemical
# Details: not given
# Outline: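 Kinase (20 nM final) and compound were premixed 20 min at 30 °C, then phosphorylation ran 2 h at 30 °C with ATP at 90 μM and Ulight-TK substrate at 50 μM, pH 7.5, Mg2+ and Mn2+ present.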
# Chain of KDR kinase (790-1356 AA) (P35968 790-1356): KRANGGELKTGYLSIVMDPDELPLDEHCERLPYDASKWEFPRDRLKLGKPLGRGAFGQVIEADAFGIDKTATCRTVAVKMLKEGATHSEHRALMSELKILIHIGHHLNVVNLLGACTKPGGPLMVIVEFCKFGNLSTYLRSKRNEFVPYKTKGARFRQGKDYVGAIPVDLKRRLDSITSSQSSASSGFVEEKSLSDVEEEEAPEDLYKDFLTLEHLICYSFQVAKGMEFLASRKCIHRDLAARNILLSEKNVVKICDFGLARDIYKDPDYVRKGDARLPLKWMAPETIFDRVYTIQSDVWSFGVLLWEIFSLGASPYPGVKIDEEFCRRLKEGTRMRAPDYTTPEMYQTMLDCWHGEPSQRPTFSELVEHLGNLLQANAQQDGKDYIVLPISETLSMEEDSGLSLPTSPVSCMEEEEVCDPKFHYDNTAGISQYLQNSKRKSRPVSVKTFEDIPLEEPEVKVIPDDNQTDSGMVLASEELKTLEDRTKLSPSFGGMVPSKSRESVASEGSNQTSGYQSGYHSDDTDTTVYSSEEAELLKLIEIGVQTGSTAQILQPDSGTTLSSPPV
row,Structure (SMILES),IC50 [µM]
1,CC1CN(c2cc(NC(=O)Nc3ccc(Oc4ccnc(NC(=O)C5CC5)c4)c(F)c3)cc(C(F)(F)F)c2)CCO1 (centres unmarked) [Exe. 162],0.0068
2,CN1CCC(Oc2cc(NC(=O)Nc3ccc(Oc4ccnc(NC(=O)C5CC5)c4)c(F)c3)cc(C(F)(F)F)c2)CC1 [Exe. 164],0.0307
3,CN1CCN(Cc2cc(NC(=O)Nc3ccc(Oc4ccnc(NC(=O)C5CC5)c4)c(F)c3)cc(C(F)(F)F)c2)CC1 [Exe. 167],0.0161
4,CN1CCC(Nc2ccc(NC(=O)Nc3ccc(Oc4ccnc(NC(=O)C5CC5)c4)c(F)c3)cc2C(F)(F)F)CC1 [Exe. 168],0.012
5,O=C(Nc1ccc(Oc2ccnc(NC(=O)C3CC3)c2)c(F)c1)Nc1cc(C(F)(F)F)ncn1 [Exe. 170],0.0056
6,O=C(Nc1cccc(OC(F)(F)F)c1)Nc1ccc(Oc2ccnc(NC(=O)C3CC3)c2)c(F)c1 [Exe. 175],0.0049
7,O=C(Nc1ccc(OC(F)(F)F)cc1)Nc1ccc(Oc2ccnc(NC(=O)C3CC3)c2)c(F)c1 [Exe. 178],0.0053
8,CC(F)(F)c1ccc(F)c(NC(=O)Nc2ccc(Oc3ccnc(NC(=O)C4CC4)c3)c(F)c2)c1 [Exe. 181],0.0071
9,CC(F)(F)c1cc(NC(=O)Nc2ccc(Oc3ccnc(NC(=O)C4CC4)c3)c(F)c2)ccc1Cl [Exe. 182],0.0147
10,CC(F)(F)c1cc(NC(=O)Nc2ccc(Oc3ccnc(NC(=O)C4CC4)c3)c(F)c2)ccc1F [Exe. 183],0.0136
11,O=C(Nc1ccc(Oc2ccnc(NC(=O)C3CC3)c2)c(F)c1)Nc1cc(Cl)ccc1F [Exe. 184],0.0076

# Second part, the molecule after the results:
row,IC50 [µM],Structure (SMILES)
1,0.0059,O=C(Nc1ccc(Oc2ccnc(NC(=O)C3CC3)c2)c(F)c1)Nc1cc(C(F)(F)F)ccc1Cl [Exe. 157]
2,0.008,O=C(Nc1cc(-c2ccncc2)cc(C(F)(F)F)c1)Nc1ccc(Oc2ccnc(NC(=O)C3CC3)c2)c(F)c1 [Exe. 159]
3,0.0122,CN1CCC(Nc2cc(NC(=O)Nc3ccc(Oc4ccnc(NC(=O)C5CC5)c4)c(F)c3)cc(C(F)(F)F)c2)CC1 [Exe. 161]
4,0.0116,C=CC(=O)Nc1cc(NC(=O)Nc2ccc(Oc3ccnc(NC(=O)C4CC4)c3)c(F)c2)cc(C(F)(F)F)c1 [Exe. 163]
5,0.0055,CS(=O)(=O)Nc1cc(NC(=O)Nc2ccc(Oc3ccnc(NC(=O)C4CC4)c3)c(F)c2)cc(C(F)(F)F)c1 [Exe. 165]
6,0.0115,O=C(Nc1cc(N2CCS(=O)(=O)CC2)cc(C(F)(F)F)c1)Nc1ccc(Oc2ccnc(NC(=O)C3CC3)c2)c(F)c1 [Exe. 166]
